From ChEMBL document CHEMBL4342426, “Structure-activity relationship of 4-azaindole-2-piperidine derivatives as agents against Trypanosoma cruzi” (Bioorg Med Chem Lett, 2020)

What was measured:
cells = settings: Homo sapiens, MRC-5 SV2, 72 h
Description: (§1) Cytotoxicity against human MRC5 SV2 cells assessed as reduction in cell viability incubated for 3 days by fluorimetry

Macrophage = test: cells; settings: Mus musculus, 72 h
Description: (§2) Cytotoxicity against mouse peritoneal Macrophage cells assessed as reduction in cell viability incubated for 3 days by fluorimetry

in vitro [1] = settings: human, MRC5 SV2 cells
Description: as §1

in vitro [2] = settings: human, liver microsomes
Description: Metabolic stability in human liver microsomes assessed as intrinsic clearance at 0.5 uM incubated for 30 mins by LC-MS/MS analysis

in vitro [3] = settings: mouse, liver microsomes
Description: Metabolic stability in mouse liver microsomes assessed as intrinsic clearance at 0.5 uM incubated for 30 mins by LC-MS/MS analysis

physchem = settings: buffer, pH 7.4
Description: Lipophilicity, logD of compound at pH 7.4 by HPLC analysis

in vitro [4] = settings: human, MRC5 SV2 cells; remark: listed apart in the source
Description: Selectivity index, ratio of IC50 for human MRC5 SV2 cells to IC50 for Trypanosoma cruzi Tulahuen CL2 amastigotes infected in human MRC5 SV2 cells

in vitro [5] = settings: mouse, peritoneal macrophages
Description: as §2

in vitro [6] = settings: human, MRC5 SV2 cells; remark: listed apart in the source
Description: Selectivity index, ratio of IC50 for human MRC5 SV2 cells to IC50 for Trypanosoma brucei rhodesiense STIB900 trypomastigotes

in vitro [7] = settings: PAMPA
Description: Effective permeability of compound by PAMPA assay

Trypanosoma cruzi = test: microbe, parasite or virus in culture; settings: Tulahuen CL2, MRC-5 SV2, 168 h
Description: Antitrypanosomal activity against Trypanosoma cruzi Tulahuen CL2 amastigotes infected in human MRC5 SV2 cells incubated for 7 days by chlorophenol red beta-D-galactopyranoside substrate based spectrophotometric assay

Trypanosoma brucei = test: microbe, parasite or virus in culture; settings: Squib 427, 72 h
Description: Antitrypanosomal activity against Trypanosoma brucei Squib 427 assessed as reduction in parasite growth incubated for 72 hrs by resazurin dye based fluorimetric analysis

[8] = system: Trypanosoma brucei rhodesiense; test: microbe, parasite or virus in culture; settings: STIB900, 72 h
Description: Antiprotozoal activity against Trypanosoma brucei rhodesiense STIB900 trypomastigotes incubated for 72 hrs by resazurin dye based fluorimetric analysis

Leishmania infantum = test: microbe, parasite or virus in culture; settings: for IC50: MHOM/MA(BE)/67/ITMAP263, 120 h; for IC90: MHOM/MA(BE)/67/ITMAP263, in Mus musculus, 120 h
Description: Antileishmanial activity against amastigote stage of Leishmania infantum MHOM/MA(BE)/67/ITMAP263 infected in mouse peritoneal macrophage assessed as parasite growth inhibition incubated for 5 days by Giemsa staining based assay

in vitro [9] = settings: mouse, liver microsomes; remark: listed apart in the source
Description: Metabolic stability in mouse liver microsomes assessed as fraction unbound at 0.5 uM incubated for 30 mins by LC-MS/MS analysis

| IC90 at 72 h (in vitro [1]) [µM] | CLint scaled at 0.5 h, 0.5 µM (in vitro [2]) [mL/min/kg] | microsomal CLint at 0.5 h, 0.5 µM (in vitro [2]) [µL/min/mg] | CLint scaled at 0.5 h, 0.5 µM (in vitro [3]) [mL/min/kg] | microsomal CLint at 0.5 h, 0.5 µM (in vitro [3]) [µL/min/mg] | logD (physchem) | IC90 at 72 h (in vitro [5]) [µM] | Papp (in vitro [7]) [×10⁻⁶ cm/s] | IC50 (Trypanosoma brucei) [µM] | IC90 (Trypanosoma brucei) [µM] | IC50 [8] [µM] | IC90 [8] [µM] | IC50 (Leishmania infantum) [µM] | IC90 (Leishmania infantum) [µM] | fraction unbound at 0.5 h, 0.5 µM (in vitro [9]) | Structure (SMILES) | IC50 (cells) [µM] | IC50 (Macrophage) [µM] | selectivity ratio (in vitro [4]) | IC50 (Trypanosoma cruzi) [µM] | IC90 (Trypanosoma cruzi) [µM] | also measured |
| --- | --- | --- | --- | --- | --- | --- | --- | --- | --- | --- | --- | --- | --- | --- | --- | --- | --- | --- | --- | --- | --- |
| 64 | 41.3 | 38.3 | 1080 | 337 | 2.86 | 64 | 0.625 | 64 | 64 | 32.8 | 60.7 | 64 | 64 |  | O=C(c1ccc(F)cc1)N1CCCC(c2cc3ncccc3[nH]2)C1 (stereo not drawn) | 64 | 64 | 6.38 | 10 | 44.1 | selectivity ratio (in vitro [6]): 1.98 |
| 32 |  |  |  |  |  | 32 |  | 32 | 32 | 5.88 | 23.4 | 24.7 | 32 |  | COc1cccc2[nH]c(C(=O)N3CCCC(c4cc5ncccc5[nH]4)C3)cc12 (stereo not drawn) | 32 | 32 | 29.4 | 1.09 | 5.34 | selectivity ratio (in vitro [6]): 5.44 |
| 64 |  |  |  |  |  | 64 |  | 51.1 | 64 | 35.4 | 64 | 64 | 64 |  | CC(C)c1cc(C(=O)N2CCCC(O)(c3cc4ncccc4n3S(=O)(=O)c3ccccc3)C2)on1 (stereo not drawn) | 64 | 64 | 1.26 | 51.3 | 64 | selectivity ratio (in vitro [6]): 1.8 |
| 64 | 38.8 | 24.7 | 2360 | 508 | 2.68 | 64 | 2.88 | 64 | 64 | 38.3 to 64 | 64 | 64 | 64 |  | O=C(c1ccccc1)N1CCCC(c2cc3ncccc3[nH]2)C1 (stereo not drawn) | 64 | 64 | 7.13 to 7.5 | 8.5 to 9.02 | 31.1 to 45.3 | selectivity ratio (in vitro [6]): 1.7 |
| 32 | 207 |  | 10300 |  |  | 32 |  | 32 | 32 | 17.8 | 32 | 28.5 | 32 |  | COc1ccc(Cl)cc1C(=O)N1CCCC(c2cc3ncccc3[nH]2)C1 (stereo not drawn) | 32 | 32 | 8.54 | 3.75 | 7.59 | selectivity ratio (in vitro [6]): 1.79 |
| 64 | < 31.7 | < 23 | 439 | 108 | 2.79 | 64 | 11.4 | 64 | 64 | 30.3 | 57.6 | 64 | 64 |  | CCN(CCc1nc2ncc(Cl)cc2[nH]1)C(=O)c1ccc(F)cc1 | 64 | 64 |  | 64 | 64 | selectivity ratio (in vitro [6]): 2.1 |
| 64 | 95.8 | 58.2 | 5410 | 1110 | 3.12 | 64 | 2.86 | 64 | 64 | 64 | 64 | 64 | 64 | 0.656 | O=C(c1cc(C(F)(F)F)no1)N1CCC(c2cc3ncccc3[nH]2)C1 (stereo not drawn) | 64 | 64 | 7.25 | 8.3 | 64 |  |
| 64 | 118 | 89.8 | 529 | 137 | 2.89 | 64 | 4.3 | 64 | 64 | 64 | 64 | 64 | 64 | 0.825 | O=C(c1cc(C(F)(F)F)no1)N1CCOC(c2cc3ncccc3[nH]2)C1 (stereo not drawn) | 64 | 64 | 1.8 | 35.7 | 64 |  |
| 64 | < 33.3 | < 23 | 1310 | 305 | 2.89 | 64 | 1.65 | 64 | 64 | 30.3 | 64 | 24.7 | 46.1 |  | O=C(c1ccccc1)N1CC=C(c2cc3ncccc3[nH]2)CC1 | 64 | 64 | 26.8 | 2.39 | 12.3 | selectivity ratio (in vitro [6]): 2.1 |
| 64 | < 37.8 | < 23 | < 88 | < 23 | 2.3 | 64 | 0.45 | 64 | 64 | 64 | 64 | 64 | 64 | 0.661 to 0.839 | CC(C)(O)c1cc(C(=O)N2CCCC(c3cc4ncccc4[nH]3)C2)on1 (stereo not drawn) | 64 | 64 | 1.9 | 33.6 | 64 |  |
| 64 | 57.8 | 36.9 | 601 | 129 | 2.44 | 64 | 6.36 | 64 | 64 | 64 | 64 | 64 | 64 | 0.688 | COc1cc(C(=O)N2CCCC(c3cc4ncccc4[nH]3)C2)on1 (stereo not drawn) | 64 | 64 | 7.9 | 8.1 | 15.2 |  |
| 64 | < 33.3 | < 23 | 4520 | 1040 | 2.68 | 64 | 0.94 | 64 | 64 | 64 | 64 | 64 | 64 | 0.738 | O=C(c1ccccc1)N1CCC(c2cc3ncccc3[nH]2)CC1 | 64 | 64 | 2.86 | 22.4 | 56.1 |  |
| 64 | 38.3 to 210 | 23 to 114 | 315 to 1070 | 64 to 196 | 2.94 to 3.02 | 64 | 0.584 to 2.12 | 64 | 64 | 64 | 64 | 64 | 64 | 0.584 to 0.649 | O=C(c1cccc(C(F)(F)F)n1)N1CCCC(c2cc3ncccc3[nH]2)C1 (stereo not drawn) | 64 | 64 | 2.42 to 4.35 | 14.8 to 26.1 | 59.3 to 60.5 |  |
| 64 | < 30.2 | < 23 | 1470 | 382 | 1.88 | 64 | 2.85 | 64 | 64 | 64 | 64 | 64 | 64 | 0.83 | CN(CCc1cc2ncccc2[nH]1)C(=O)c1ccccc1 | 64 | 64 | 1.75 | 36.2 | 64 |  |
| 64 | 49.3 | 35.1 | 426 | 102 | 2.23 | 64 | 9.64 | 64 | 64 | 64 | 64 | 64 | 64 | 0.767 | CCN(C(=O)CCc1nc2ncccc2[nH]1)c1ccccc1 | 64 | 64 | 1.3 | 49.1 | 64 |  |
